{"source": "patent US5994363A", "about": "(priority 1998, dated 1999)", "key": {"[1]": {"test": "Bioavailability by route of administration in dog (Example 3)", "settings": "in vivo"}, "[2]": {"settings": "cited from earlier work"}, "[3]": {"test": "Pharmacokinetic comparison of 4- and 8-mg sublingual tablets with 1 mg i.v. in healthy male volunteers (Example 4)"}, "[4]": {"test": "Plasma concentration or dose threshold for adverse effects"}, "[5]": {"test": "Adverse events in escalating dose tolerance study in psychogenic male erectile dysfunction (Example 5)", "format": "in vivo, human", "settings": "in vivo", "experimental": "Example 5-Summary. This clinical study was conducted in three phases. In Phase 1 subjects were selected from among patients complaining of impotence by a thorough physiological and psychological assessment. For example, one step in the assessment process required candidates to undergo Rigiscan measurement of penile rigidity and circumference following administration of a placebo tablet in single blind fashion. Phase 2 consisted of a dose escalation (4, 6, and 8 mg tablets) administered on 4 visits. An out-patient phase was conducted as Phase 3. Patients were given apomorphine HCL tablets to use at home.\nExample-5 Detailed Description (Clinical Study #94-03-01). The human study was conducted in three separate phases. Phase 1 consisted of selecting appropriate subjects and obtaining baseline information on sexual performance for each subject.\nThey were tested on four separate days at four separate doses (placebo and three active medication doses) with an interval of no less than six days between visits (i.e., one visit per week).\nIf the trial was aborted, the patient was given the choice of having Gravol 50 mg p.o. (an anti-emetic) administered at that time or enduring the adverse events as they arose. In either event, the patient was monitored by the research clinician until all side-effects had subsided. The patient was asked to return the following week for the next scheduled dose.\nDuring the five-week, home-use phase, subjects were to attempt coitus at least once each week after taking a single APO tablet. After each attempt, the subject and their partner completed a Sexual Function questionnaire (See FIGS. 15 and 16) which was later evaluated and used for final statistical analysis.\nThe data was analyzed by an inspection of the reported adverse events, the given dose of apomorphine and the phase of the study, i.e., in-patient (dose escalating) or take-home (constant dose) phases."}, "[6]": {"test": "Apomorphine in human patients: erection and side effects (prior studies / general findings)", "format": "in vivo", "settings": "apomorphine dosage forms", "text": "The specific mechanisms by which apomorphine acts to produce an erectile response in a human patient are not yet completely understood, however."}, "[7]": {"test": "Plasma concentration profile in dog at day 1, 90 and 180 (Example 2)", "format": "in vivo", "settings": "day 1, day 90 or day 180, 0.04, 0.1, 0.4 mg/kg", "procedure": "To assess whether the reduction in side effects could be attributable to changes in pharmacokinetic response, a plasma concentration profile study was conducted for each dosage group at day 1, day 90 and day 180."}, "[8]": {"test": "clinical", "settings": "human, plasma"}, "[9]": {"test": "Nerve stimulated clitoral and vaginal wall blood flow in females", "format": "in vivo", "settings": "administration to females"}, "[10]": {"settings": "cited from earlier work", "remark": "listed apart in the source"}, "[11]": {"settings": "cited from earlier work", "remark": "listed apart in the source"}}}
{"smiles": "CN1CCc2cccc3c2[C@H]1Cc1ccc(O)c(O)c1-3", "note": "[apomorphine, (R)-5,6,6a,7-Tetrahydro-6-methyl-4H-dibenzo-[de,g] quinoline-10,11-diol]", "values": [{"measurement": "AUC", "setting": "[1]; 0.2 mg/kg", "result": 5.45, "unit": "ng·h/mL"}, {"measurement": "AUC", "setting": "[1]; po, 0.2 mg/kg", "result": 1.58, "unit": "ng·h/mL"}, {"measurement": "AUC", "setting": "[1]; sc, 0.04 mg/kg", "result": 8.06, "unit": "ng·h/mL"}, {"measurement": "lethality of larger infusion dose", "setting": "[2]; 1,500 μg/kg/hr, 14 day study", "result": "minimally lethal"}, {"measurement": "tolerated continuous infusion dose", "setting": "[2]; continuous infusion, 14 days", "result": 420, "unit": "µg/kg/h"}, {"measurement": "MRT (mean residual time)", "setting": "[3]; i.v. 1 mg", "result": 40.3, "unit": "min"}, {"measurement": "Vd (volume of distribution @ β stage)", "setting": "[3]; s.l. tablet 8 mg", "result": 2.07, "unit": "L/kg"}, {"measurement": "plasma concentration at which incidence of adverse side effects is minimal", "setting": "[4]; plasma concentration maintained at no more than", "result": "no more than 5.5 ng/ml"}, {"measurement": "threshold concentration (Cmax) for onset of adverse effects", "setting": "[4]; plasma, human male subjects, nausea", "result": "about 2.5 nanograms/milliliter"}, {"measurement": "threshold dose for most impotence patients", "setting": "[4]; sublingual tablet, week 1", "result": 2, "unit": "mg"}, {"measurement": "blood or urinalysis values", "setting": "[5]", "result": "no clinically significant changes"}, {"measurement": "effectiveness in Parkinson's disease and psychogenic erectile dysfunction", "setting": "[6]", "result": "effective"}, {"measurement": "AUC, distribution, or elimination over repeated dosing", "setting": "[7]", "result": "No evidence of significant changes"}, {"measurement": "AUC", "setting": "[8]; 4 mg", "result": 0.527, "unit": "ng·h/mL"}, {"measurement": "Cmax", "setting": "[8]; 4 mg", "result": 0.83, "unit": "ng/mL"}, {"measurement": "AUC", "setting": "[8]; 8 mg", "result": 4.72, "unit": "ng·h/mL"}, {"measurement": "AUC", "setting": "[8]; iv, 1 mg", "result": 3.45, "unit": "ng·h/mL"}, {"measurement": "Cmax", "setting": "[8]; iv, 1 mg", "result": 8.3, "unit": "ng/mL"}, {"measurement": "nerve stimulated clitoral intracavernosal and vaginal wall blood flow", "setting": "[9]", "result": "increases nerve stimulated clitoral intracavernosal blood flow and vaginal wall blood flow"}, {"measurement": "nausea and vomiting after large doses", "setting": "[10]; large doses, mammals such as humans, dogs", "result": "usually results in nausea and vomiting"}, {"measurement": "emetic dose", "setting": "[10]; subcutaneous, recognized use as an emetic", "result": "~5", "unit": "milligram"}, {"measurement": "side effects / therapeutic usefulness (Segraves)", "setting": "[11]; erectile responses in human males", "result": "too many side effects to have therapeutic usefulness"}, {"measurement": "erection in psychogenic male patients", "setting": "[11]; psychogenic impotence", "result": "can indeed induce an erection in a psychogenic patient"}, {"measurement": "side effects at dose required for significant erectile response", "setting": "[11]; psychogenic impotence", "result": "usually accompanied by nausea or other serious undesirable side effects, including hypertension, flushing and diaphoresis (sweating)"}]}
